Data: patent US10947252B2, “Inhibitors of KEAP1-Nrf2 protein-protein interaction” (Janssen Pharmaceutica NV, priority 2018, dated 2021)

How the values were obtained:
[1] = system: Glo-Response ARE-luc2P HEK293 cell line; assay: ARE luciferase reporter cell-based assay; details: Homo sapiens, HEK293, 24 h, average of results obtained;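 note: luciferase signal tracks Nrf2 activation of the ARE once compounds disrupt KEAP1-Nrf2 binding, read with One-Glo reagent, DMSO serving as low control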
[2] = target: Kelch domain of human KEAP1 (321-624 aa) (Homo sapiens (Human), UniProt Q14145); assay: KEAP1 KELCH ThermoFluor binding assay; details: KEAP Kelch […], 1,8-ANS, pH 7.0, average of results obtained, read-out: Tf Kd;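 note: Ligand-induced melting temperature shift of E. coli-expressed KEAP1 Kelch protein, Kd estimated from concentration-response curves of ΔTm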
Sequence of Kelch domain of human KEAP1 (321-624 aa) (Q14145 321-624): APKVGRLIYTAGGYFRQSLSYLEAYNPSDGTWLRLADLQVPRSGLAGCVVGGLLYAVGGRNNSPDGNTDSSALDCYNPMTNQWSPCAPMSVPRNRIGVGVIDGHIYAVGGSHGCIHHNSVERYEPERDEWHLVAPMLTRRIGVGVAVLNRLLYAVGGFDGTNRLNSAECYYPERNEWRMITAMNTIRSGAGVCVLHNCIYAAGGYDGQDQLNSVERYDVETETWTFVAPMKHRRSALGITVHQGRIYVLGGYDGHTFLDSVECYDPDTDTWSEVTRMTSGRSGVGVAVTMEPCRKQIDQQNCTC

Row | Kd [2] [nM] | Compound | EC50 [1] [nM]
1 | < 1 | Cc1cnc2c(c1)S(=O)(=O)N(Cc1cc(C(CC(=O)O)c3ccn4c(C(F)F)nnc4c3C)ccc1C)C[C@@H]1CCCCN21 (stereo in doubt) [Example 499, 3-(3-(Difluoromethyl)-8-methyl-[1,2,4]triazolo[4,3-a]pyridin-7-yl)-3-(4-methyl-3-(((*S)-3-methyl-5,5-dioxido-7,7a,8,9,10,11-hexahydro-6H-dipyrido[2,1-d:2′,3′-f][1,2,5]thiadiazepin-6-yl)methyl)phenyl)propanoic Acid] | 12.8
2 | 1.19 | Cc1ccc([C@H](CC(=O)O)c2ccn3c(C(F)F)nnc3c2C)cc1CN1C[C@H]2COCCN2c2ncccc2S1(=O)=O (single isomer, unassigned) [Example 461, (*S)-3-(3-(Difluoromethyl)-8-methyl-[1,2,4]triazolo[4,3-a]pyridin-7-yl)-3-(3-(((*S)-5,5-dioxido-7a,8,10,11-tetrahydro-[1,4]oxazino[3,4-d]pyrido[2,3-f][1,2,5]thiadiazepin-6(7H)-yl)methyl)-4-methylphenyl)propanoic Acid] | 68.7
3 | < 1 | Cc1ccc([C@@H](c2ccn3c(C(F)(F)F)nnc3c2C)C(C)(C)C(=O)O)cc1CN1CC2(CCOCC2)Oc2nc(OC(C)CN3CCCCC3)c(C)cc2S1(=O)=O (stereo in doubt) [Example 600, (*S)-2,2-Dimethyl-3-(4-methyl-3-((8′-methyl-1′,1′-dioxido-7′-((1-(piperidin-1-yl)propan-2-yl)oxy)-2,3,5,6-tetrahydrospiro[pyran-4,4′-pyrido[2,3-b][1,4,5]oxathiazepin]-2′,(3′H)-yl)methyl)phenyl)-3-(8-methyl-3-(trifluoromethyl)-[1,2,4]triazolo[4,3-a]pyridine-7-yl)propanoic Acid] | 4.58
4 | 1450 | Cc1cnc2c(c1)S(=O)(=O)N(Cc1cc([C@H](c3ccc4c(nnn4C4CC4)c3C)C(C)(C)C(=O)O)ccc1C)CC1(CCNCC1)O2 (single isomer, unassigned) [Example 649, (*R)-3-(1-Cyclopropyl-4-methyl-1H-benzo[d][1,2,3]triazol-5-yl)-2,2-dimethyl-3-(4-methyl-3-((8′-methyl-1′,1′-dioxidospiro[piperidine-4,4′-pyrido[2,3-b][1,4,5]oxathiazepin]-2′(3′)-yl)methyl)phenyl)propanoic Acid] | 4750
5 | 323 | Cc1ncc([C@H](CC(=O)O)c2ccn3c(C(F)(F)F)nnc3c2C)cc1CN1CC2(CCOCC2)Oc2ncccc2S1(=O)=O (single isomer, unassigned) [Example 564, (*R)-3-(5-((1′,1′-Dioxido-2,3,5,6-tetrahydrospiro[pyran-4,4′-pyrido[2,3-b][1,4,5]oxathiazepin]-2′(3′H)-yl)methyl)-6-methylpyridin-3-yl)-3-(8-methyl-3-(trifluoromethyl)-[1,2,4]triazolo[4,3-a]pyridin-7-yl)propanoic Acid] | > 20000

Second part, the molecule before the results:

Row | Compound | Kd [2] [nM] | EC50 [1] [nM]
6 | Cc1ccc([C@@H](c2ccn3c(C(F)(F)F)nnc3c2C)C(C)(C)C(=O)O)cc1CN1CC2(CCOCC2)Oc2nc(OCCCO)ccc2S1(=O)=O (single isomer, unassigned) [Example 50, (*S)-3-(3-((7′-(3-Hydroxypropoxy)-1′,1′-dioxido-2,3,5,6-tetrahydrospiro[pyran-4,4′-pyrido[2,3-b][1,4,5]oxathiazepin]-2′(3′H)-yl)methyl)-4-methylphenyl-2,2′-dimethyl-3-(8-methy-3-trifluoromethyl)-[1,2,4]triazolo[4,3-a]pyridine-7-yl)propanoic Acid] | < 1 | 52
7 | CC[C@@H]1CN(Cc2cc([C@H](CC(=O)O)c3ccn4c(C(F)(F)F)nnc4c3)ccc2C)S(=O)(=O)c2cccnc2O1 (single isomer, unassigned) [Example 257, (*S)-3-(3-(((R)-4-Ethyl-1,1-dioxido-3,4-dihydro-2H-pyrido[2,3-b][1,4,5]oxathiazepin-2-yl)methyl)-4-methylphenyl)-3-(3-(trifluoromethyl)-[1,2,4]triazolo[4,3-a]pyridin-7-yl)propanoic Acid] | < 1 | 574
8 | Cc1ccc([C@H](CC(=O)O)c2ccn3c(C(F)(F)F)nnc3c2C)cc1CN1CC2(CC2)Oc2ncc(C#N)cc2S1(=O)=O (single isomer, unassigned) [Example 200, (*S)-3-(3-((8′-Cyano-1′,1′-dioxidospiro[cyclopropane-1,4′-pyrido[2,3-b][1,4,5]oxathiazepin]-2′(3′H)-yl)methyl)-4-methylphenyl)-3-(8-methyl-3-(trifluoromethyl)-[1,2,4]triazolo[4,3-a]pyridin-7-yl)propanoic Acid] | < 1 | 61
9 | Cc1ccc(C(CC(=O)O)c2ccc3c(nnn3CC3CC3)c2C)cc1CN1C[C@H]2CCCN2c2ncccc2S1(=O)=O (stereo partly drawn) [Example 400, 3-(1-(cyclopropylmethyl)-4-methyl-1H-benzo[d][1,2,3]triazol-5-yl)-3-(3-(((R)-5,5-dioxido-7a,8,9,10-tetrahydropyrido[2,3-f]pyrrolo[2,1-d][1,2,5]thiadiazepin-6(7H)-yl)methyl)-4-methylphenyl)propanoic acid] | < 1 | 4.1
10 | Cc1ccc([C@@H](CC(=O)O)c2ccn3c(C(F)(F)F)nnc3c2C)nc1CN1C[C@H]2CCCCN2c2ncc(C#N)cc2S1(=O)=O (single isomer, unassigned) [Example 35, (*S)-3-(6-(((*R)-3-Cyano-5,5-dioxido-7,7a,8,9,10,11-hexahydro-6H-dipyrido[2,1-d:2′,3′-f][1,2,5]thiadiazepin-6-yl)methyl)-5-methylpyridin-2-yl)-3-(8-methyl-3-(trifluoromethyl)-[1,2,4]triazolo[4,3-a]pyridin-7-yl)propanoic Acid] | < 1 | 65.7
11 | Cc1c(C(CC(=O)O)c2ccc(Cl)c(CN3CC4CCCCN4c4ncccc4S3(=O)=O)c2)ccn2c(C(F)(F)F)nnc12 (centres unmarked) [Example 83, 3-(4-Chloro-3-(((*S)-5,5-dioxido-7,7a,8,9,10,11-hexahydro-6H-dipyrido[2,1-d:2′,3′-f][1,2,5]thiadiazepin-6-yl)methyl)phenyl)-3-(8-methyl-3-(trifluoromethyl)-[1,2,4]triazolo[4,3-a]pyridine-7-yl)propanoic Acid] | < 1 | 232
12 | Cc1ccc([C@@H](c2ccn3c(C(F)F)nnc3c2C)C(C)(C)C(=O)O)nc1CN1CC2(CCOCC2)Oc2nc(OCCN3CCCCC3)c(C)cc2S1(=O)=O (single isomer, unassigned) [Example 354, (*S)-3-(3-(Difluoromethyl)-8-methyl-[1,2,4]triazolo[4,3-a]pyridin-7-yl)-2,2-dimethyl-3-(5-methyl-6-((8′-methyl-1′,1′-dioxido-7′-(2-(piperidin-1-yl)ethoxy)-2,3,5,6-tetrahydrospiro[pyran-4,4′-pyrido[2,3-b][1,4,5]oxathiazepin]-2′(3′H)-yl)methyl)pyridin-2-yl)propanoic Acid] | < 1 | 20.6
13 | CCn1nnc2c(C)c(C(c3cnc(C)c(CN4CC5(CCOCC5)Oc5ncc(C)cc5S4(=O)=O)c3)C(C)(C)C(=O)O)ccc21 (racemic) [Example 61, (R/S)-3-(1-Ethyl-4-methyl-1H-benzo[d][1,2,3]triazol-5-yl)-2,2-dimethyl-3-(6-methyl-5-((8′-methyl-1′,1′-dioxido-2,3,5,6-tetrahydrospiro[pyran-4,4′-pyrido[2,3-b][1,4,5]oxathiazepin]-2′(3′H)-yl)methyl)pyridin-3-yl)propanoic Acid] | < 1 | 41.7
